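In this assay, cells in 96-well plates receive the compound at five concentrations for 48 hours. Endpoints are linearly interpolated between the surrounding concentrations. TGI denotes the concentration required for complete inhibition of growth.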
Columns and labels:
Test in all cases: NCI anticancer screen, dose series, 48 h
HS 578T breast = tested on: HS 578T breast
A549 NSCLC = tested on: A549 NSCLC
SK-OV-3 ovarian = tested on: SK-OV-3 ovarian
MCF7 breast = tested on: MCF7 breast
OVCAR-8 ovarian = tested on: OVCAR-8 ovarian
OVCAR-4 ovarian = tested on: OVCAR-4 ovarian
OVCAR-3 ovarian = tested on: OVCAR-3 ovarian
KM12 colon = tested on: KM12 colon
RPMI-8226 leukemia = tested on: RPMI-8226 leukemia
MDA-MB-435 = tested on: MDA-MB-435
786-0 renal = tested on: 786-0 renal
SK-MEL-2 melanoma = tested on: SK-MEL-2 melanoma
UO-31 renal = tested on: UO-31 renal
DU-145 prostate = tested on: DU-145 prostate
U251 CNS = tested on: U251 CNS
NCI-H226 lung = tested on: NCI-H226 lung
HCC-2998 colon = tested on: HCC-2998 colon
M14 melanoma = tested on: M14 melanoma
SF-268 CNS = tested on: SF-268 CNS
HCT-15 colon = tested on: HCT-15 colon
HT29 colon = tested on: HT29 colon
SN12C renal = tested on: SN12C renal
PC-3 prostate = tested on: PC-3 prostate
HOP-92 NSCLC = tested on: HOP-92 NSCLC
T-47D breast = tested on: T-47D breast
HCT-116 colon = tested on: HCT-116 colon
SW-620 colon = tested on: SW-620 colon
HOP-62 NSCLC = tested on: HOP-62 NSCLC
BT-549 breast = tested on: BT-549 breast
CCRF-CEM leukemia = tested on: CCRF-CEM leukemia
NCI-H460 lung = tested on: NCI-H460 lung
UACC-62 melanoma = tested on: UACC-62 melanoma
EKVX NSCLC = tested on: EKVX NSCLC
K-562 leukemia = tested on: K-562 leukemia
MDA-N = tested on: MDA-N
SK-MEL-5 melanoma = tested on: SK-MEL-5 melanoma
OVCAR-5 ovarian = tested on: OVCAR-5 ovarian
NCI-H23 lung = tested on: NCI-H23 lung
ACHN renal = tested on: ACHN renal
COLO 205 colon = tested on: COLO 205 colon
TK-10 renal = tested on: TK-10 renal
UACC-257 melanoma = tested on: UACC-257 melanoma
NCI-H522 lung = tested on: NCI-H522 lung
MALME-3M melanoma = tested on: MALME-3M melanoma
MDA-MB-231 breast = tested on: MDA-MB-231 breast
MOLT-4 leukemia = tested on: MOLT-4 leukemia
SNB-19 CNS = tested on: SNB-19 CNS
SF-539 CNS = tested on: SF-539 CNS
LOX IMVI melanoma = tested on: LOX IMVI melanoma
IGROV1 ovarian = tested on: IGROV1 ovarian
RXF 393 renal = tested on: RXF 393 renal
SF-295 CNS = tested on: SF-295 CNS
A498 renal = tested on: A498 renal
CAKI-1 renal = tested on: CAKI-1 renal
SNB-75 CNS = tested on: SNB-75 CNS
HL-60(TB) leukemia = tested on: HL-60(TB) leukemia
SR leukemia = tested on: SR leukemia
SK-MEL-28 melanoma = tested on: SK-MEL-28 melanoma

C/C=C\C1OC1(C)c1cc(=O)c2c(C)cc3c(c2o1)C(=O)c1c(O)c(C2CC(C)(N(C)C)C(OC(C)=O)C(C)O2)cc(C2CC(N(C)C)C(O)C(C)O2)c1C3=O (stereo not drawn)
TGI (HS 578T breast): 22.3 nM
TGI (A549 NSCLC): 482 nM
TGI (SK-OV-3 ovarian): 49.8 nM
TGI (MCF7 breast): 40.1 nM
TGI (OVCAR-8 ovarian): 17.7 nM
TGI (OVCAR-4 ovarian): 8.88 nM
TGI (OVCAR-3 ovarian): 36.5 nM
TGI (KM12 colon): 10.9 nM
TGI (RPMI-8226 leukemia): 57.4 nM
TGI (MDA-MB-435): 10.3 nM
TGI (786-0 renal): 15.8 nM
TGI (SK-MEL-2 melanoma): 6.57 nM
TGI (UO-31 renal): 10.6 nM
TGI (DU-145 prostate): 91.2 nM
TGI (U251 CNS): 39.4 nM
TGI (NCI-H226 lung): 18 nM
TGI (HCC-2998 colon): 6.46 nM
TGI (M14 melanoma): 6.53 nM
TGI (SF-268 CNS): 72.1 nM
TGI (HCT-15 colon): 29.1 nM
TGI (HT29 colon): 1930 nM
TGI (SN12C renal): 13.4 nM
TGI (PC-3 prostate): 13.1 nM
TGI (HOP-92 NSCLC): 25.1 nM
TGI (T-47D breast): 32.4 nM
TGI (HCT-116 colon): 42.9 nM
TGI (SW-620 colon): 36.9 nM
TGI (HOP-62 NSCLC): 12.1 nM
TGI (BT-549 breast): 22.1 nM
TGI (CCRF-CEM leukemia): 379 nM
TGI (NCI-H460 lung): 12.9 nM
TGI (UACC-62 melanoma): 5.04 nM
TGI (EKVX NSCLC): 22.4 nM
TGI (K-562 leukemia): 135 nM
TGI (MDA-N): 8.57 nM
TGI (SK-MEL-5 melanoma): 9.36 nM
TGI (OVCAR-5 ovarian): 488 nM
TGI (NCI-H23 lung): 8.71 nM
TGI (ACHN renal): 5.75 nM
TGI (COLO 205 colon): 9.01 nM
TGI (TK-10 renal): 1470 nM
TGI (UACC-257 melanoma): 36.6 nM
TGI (NCI-H522 lung): 9.64 nM
TGI (MALME-3M melanoma): 56.6 nM
TGI (MDA-MB-231 breast): 28.5 nM
TGI (MOLT-4 leukemia): 49 nM
TGI (SNB-19 CNS): 103 nM
TGI (SF-539 CNS): 12.1 nM
TGI (LOX IMVI melanoma): 4.85 nM
TGI (IGROV1 ovarian): 183 nM
TGI (RXF 393 renal): 7.46 nM
TGI (SF-295 CNS): 7.62 nM
TGI (A498 renal): 21.5 nM
TGI (CAKI-1 renal): 43.1 nM
TGI (SNB-75 CNS): 6.7 nM

O=C(Nn1c(-c2ccccc2)nc2ccccc2c1=O)c1cccc([N+](=O)[O-])c1
TGI (HS 578T breast): > 100000 nM
TGI (A549 NSCLC): > 100000 nM
TGI (SK-OV-3 ovarian): > 100000 nM
TGI (MCF7 breast): > 100000 nM
TGI (OVCAR-8 ovarian): > 100000 nM
TGI (HL-60(TB) leukemia): > 100000 nM
TGI (OVCAR-4 ovarian): > 100000 nM
TGI (OVCAR-3 ovarian): > 100000 nM
TGI (KM12 colon): > 100000 nM
TGI (RPMI-8226 leukemia): > 100000 nM
TGI (MDA-MB-435): > 100000 nM
TGI (786-0 renal): > 100000 nM
TGI (UO-31 renal): > 100000 nM
TGI (DU-145 prostate): > 100000 nM
TGI (U251 CNS): > 100000 nM
TGI (NCI-H226 lung): > 100000 nM
TGI (SR leukemia): > 100000 nM
TGI (HCC-2998 colon): > 100000 nM
TGI (M14 melanoma): > 100000 nM
TGI (SF-268 CNS): > 100000 nM
TGI (HCT-15 colon): > 100000 nM
TGI (HT29 colon): > 100000 nM
TGI (SN12C renal): > 100000 nM
TGI (PC-3 prostate): > 100000 nM
TGI (HOP-92 NSCLC): > 100000 nM
TGI (T-47D breast): > 100000 nM
TGI (HCT-116 colon): > 100000 nM
TGI (SW-620 colon): > 100000 nM
TGI (HOP-62 NSCLC): > 100000 nM
TGI (BT-549 breast): > 100000 nM
TGI (CCRF-CEM leukemia): > 100000 nM
TGI (NCI-H460 lung): > 100000 nM
TGI (UACC-62 melanoma): > 100000 nM
TGI (EKVX NSCLC): > 100000 nM
TGI (K-562 leukemia): > 100000 nM
TGI (MDA-N): > 100000 nM
TGI (SK-MEL-5 melanoma): > 100000 nM
TGI (OVCAR-5 ovarian): > 100000 nM
TGI (NCI-H23 lung): > 100000 nM
TGI (ACHN renal): > 100000 nM
TGI (COLO 205 colon): > 100000 nM
TGI (TK-10 renal): > 100000 nM
TGI (SK-MEL-28 melanoma): > 100000 nM
TGI (UACC-257 melanoma): > 100000 nM
TGI (NCI-H522 lung): > 100000 nM
TGI (MOLT-4 leukemia): > 100000 nM
TGI (SNB-19 CNS): > 100000 nM
TGI (SF-539 CNS): > 100000 nM
TGI (LOX IMVI melanoma): > 100000 nM
TGI (IGROV1 ovarian): > 100000 nM
TGI (RXF 393 renal): > 100000 nM
TGI (A498 renal): > 100000 nM
TGI (SNB-75 CNS): > 100000 nM

Reference: PubChem BioAssay (NCI)
